Measurements as given in US20080171756A1, “N-Substituted Glycine Derivatives: Prolyl Hydroxylase Inhibitors” (priority 2007, published 2008).
pEC50: −log10 of the molar value.

Each compound was assayed on Hep3B cells (assay: Epo protein produced by Hep3B cell line, ELISA / AlphaLISA). Settings: Homo sapiens, 48 hours incubation, 100 micromolar = maximum concentration tested.
Assay type: cell-based
Description: Hep3B cells obtained from the American Type Culture Collection (ATCC) are seeded at 2×10̂4 cells/well in Dulbecco's Modified Eagle Medium (DMEM)+10% FBS in 96-well plates. Cells are incubated at 37deg C./5% CO2/90% humidity (standard cell culture incubation conditions). After overnight adherence, medium is removed and replaced with DMEM without serum containing test compound or DMSO negative control. Following 48 hours incubation, cell culture medium is collected and assayed by ELISA to quantitate Epo protein.
Hep3B cells obtained from the American Type Culture Collection (ATCC) are seeded at 2×10̂4 cells/well in Dulbecco's Modified Eagle Medium (DMEM)+10% FBS in 96-well plates. Cells are incubated at 37deg C./5% CO2/90% humidity (standard cell culture incubation conditions). After overnight adherence, medium is removed and replaced with DMEM with 2% serum containing test compound or DMSO negative control. Following 48 hours incubation, cell culture medium is collected and either frozen for later assay or assayed immediately by AlphaLISA to quantitate Epo protein.

pEC50, < 4.00:
O=C(O)CNC(=O)c1c(O)nc(-c2ccccc2)[nH]c1=O [Example 2, N-[(4-Hydroxy-6-oxo-2-phenyl-1,6-dihydro-5-pyrimidinyl)carbonyl]glycine]
O=C(O)CNC(=O)c1c(O)nc(-c2cccc(C(=O)O)c2)[nH]c1=O [Example 18, 3-(5-{[(Carboxymethyl)amino]carbonyl}-4-hydroxy-6-oxo-1,6-dihydro-2-pyrimidinyl)benzoic acid]
O=C(O)CNC(=O)c1c(O)nc(-c2cccc(C(=O)NCc3ccccc3)c2)n(Cc2ccccc2)c1=O [Example 20, N-{[4-Hydroxy-6-oxo-1-(phenylmethyl)-2-(3-{[(phenylmethyl)amino]carbonyl}phenyl)-1,6-dihydro-5-pyrimidinyl]carbonyl}glycine]
O=C(O)CNC(=O)c1c(O)nc(-c2cccc(C(=O)O)c2)n(Cc2ccccc2)c1=O [Example 26, 3-[5-{[(Carboxymethyl)amino]carbonyl}-4-hydroxy-6-oxo-1-(phenylmethyl)-1,6-dihydro-2-pyrimidinyl]benzoic acid]
CC(C)(C)c1ccc(Cn2c(-c3c(Cl)cccc3Cl)nc(O)c(C(=O)NCC(=O)O)c2=O)cc1 [Example 29, N-[(2-(2,6-Dichlorophenyl)-1-{[4-(1,1-dimethylethyl)phenyl]methyl}-4-hydroxy-6-oxo-1,6-dihydro-5-pyrimidinyl)carbonyl]glycine]
O=C(O)CNC(=O)c1c(O)nc(-c2ccccc2Cl)n(Cc2ccccc2)c1=O [Example 30, N-{[2-(2-Chlorophenyl)-4-hydroxy-6-oxo-1-(phenylmethyl)-1,6-dihydro-5-pyrimidinyl]carbonyl}glycine]
Cc1cccc(C)c1-c1nc(O)c(C(=O)NCC(=O)O)c(=O)n1Cc1ccc(C(C)(C)C)cc1 [Example 40, N-{[1-{[4-(1,1-Dimethylethyl)phenyl]methyl}-2-(2,6-dimethylphenyl)-4-hydroxy-6-oxo-1,6-dihydro-5-pyrimidinyl]carbonyl}glycine]
CC(C)(C)c1ccc(Cn2c(-c3c(Br)cccc3Br)nc(O)c(C(=O)NCC(=O)O)c2=O)cc1 [Example 42, N-[(2-(2,6-Dibromolphenyl)-1-{[4-(1,1-dimethylethyl)phenyl]methyl}-4-hydroxy-6-oxo-1,6-dihydro-5-pyrimidinyl)carbonyl]glycine]
CC(C)(C)c1ccc(Cn2c(-c3c(-c4ccccc4)cccc3-c3ccccc3)nc(O)c(C(=O)NCC(=O)O)c2=O)cc1 [Example 43, N-{[1-{[4-(1,1-Dimethylethyl)phenyl]methyl}-4-hydroxy-6-oxo-2-(1,1′:3′,1″-terphenyl-2′-yl)-1,6-dihydro-5-pyrimidinyl]carbonyl}glycine]
CC(C)(C)c1ccc(Cn2c(-c3ccccc3-c3ccccc3)nc(O)c(C(=O)NCC(=O)O)c2=O)cc1 [Example 46, N-[(2-(2-Biphenylyl)-1-{[4-(1,1-dimethylethyl)phenyl]methyl}-4-hydroxy-6-oxo-1,6-dihydro-5-pyrimidinyl)carbonyl]glycine]
CC(C)(C)c1ccc(Cn2c(-c3ccccc3-c3cc(F)cc(F)c3)nc(O)c(C(=O)NCC(=O)O)c2=O)cc1 [Example 47, N-[(2-(3′,5′-Difluoro-2-biphenylyl)-1-{[4-(1,1-dimethylethyl)phenyl]methyl}-4-hydroxy-6-oxo-1,6-dihydro-5-pyrimidinyl)carbonyl]glycine]
CC(C)CC(CC(C)C)c1nc(O)c(C(=O)NCC(=O)O)c(=O)n1Cc1ccc(C(C)(C)C)cc1 [Example 48]
CC(C)(C)c1ccc(Cn2c(-c3ccccc3-c3ccc(C(F)(F)F)cc3)nc(O)c(C(=O)NCC(=O)O)c2=O)cc1 [Example 49, N-({1-{[4-(1,1-Dimethylethyl)phenyl]methyl}-4-hydroxy-6-oxo-2-[4′-(trifluoromethyl)-2-biphenylyl]-1,6-dihydro-5-pyrimidinyl}carbonyl)glycine]
CC(C)(C)c1ccc(Cn2c(-c3c(Cl)cccc3-c3ccccc3)nc(O)c(C(=O)NCC(=O)O)c2=O)cc1 [Example 55, N-[(2-(3-Chloro-2-biphenylyl)-1-{[4-(1,1-dimethylethyl)phenyl]methyl}-4-hydroxy-6-oxo-1,6-dihydro-5-pyrimidinyl)carbonyl]glycine]
O=C(O)CNC(=O)c1c(O)nc(-c2c(Cl)cccc2-c2ccccc2)n(Cc2ccccc2Cl)c1=O [Example 56, N-({2-(3-Chloro-2-biphenylyl)-1-[(2-chlorophenyl)methyl]-4-hydroxy-6-oxo-1,6-dihydro-5-pyrimidinyl}carbonyl)glycine]
CC(C)(C)c1ccc(Cn2c(-c3c(Cl)cc(Cl)cc3Cl)nc(O)c(C(=O)NCC(=O)O)c2=O)cc1 [Example 57, N-{[1-{[4-(1,1-Dimethylethyl)phenyl]methyl}-4-hydroxy-6-oxo-2-(2,4,6-trichlorophenyl)-1,6-dihydro-5-pyrimidinyl]carbonyl}glycine]
